Source: ChEMBL document CHEMBL4823263, “Discovery of 2-(3-(3-Carbamoylpiperidin-1-yl)phenoxy)acetic Acid Derivatives as Novel Small-Molecule Inhibitors of the β-Catenin/B-Cell Lymphoma 9 Protein-Protein Interaction” (J Med Chem, 2021)

Legend:
[1] = molecular target: Protein Wnt-3a (Homo sapiens) (UniProt P56704); test: Inhibition of Wnt3a in human SW480 cells assessed as LEF1 level at 30 uM incubated for […] by quantitative real-time PCR analysis relative to control; assay type: cell-based; design: scale not given: the % may be the effect or the level left
[2] = molecular target: Protein Wnt-3a (Homo sapiens) (UniProt P56704); test: Inhibition of Wnt3a in human SW480 cells assessed as cyclin D1 level at 10 uM incubated for […] by quantitative real-time PCR analysis relative to control; assay type: cell-based; design: scale not given: the % may be the effect or the level left
[3] = molecular target: Protein Wnt-3a (Mus musculus) (UniProt P27467); test: Inhibition of mouse wnt3a expressed in human MDA-MB-231 cells assessed as cyclin D1 level at 3.3 uM incubated for […] by quantitative real-time PCR analysis relative to control; assay type: cell-based; design: scale not given: the % may be the effect or the level left
[4] = molecular target: T1, beta-catenin-B-cell lymphoma 9 protein complex (Homo sapiens, UniProt P35222); test: Inhibition of full length C-terminal 6-His-tagged beta-catenin (1 to 781 residues) (unknown origin) expressed in Escherichia coli BL21 (DE3)-N-terminal biotinylated human BCL9 (350 to 375 residues) protein-protein interaction incubated for 1 hr by Alphascreen assay
T1 sequence (P35222 whole entry): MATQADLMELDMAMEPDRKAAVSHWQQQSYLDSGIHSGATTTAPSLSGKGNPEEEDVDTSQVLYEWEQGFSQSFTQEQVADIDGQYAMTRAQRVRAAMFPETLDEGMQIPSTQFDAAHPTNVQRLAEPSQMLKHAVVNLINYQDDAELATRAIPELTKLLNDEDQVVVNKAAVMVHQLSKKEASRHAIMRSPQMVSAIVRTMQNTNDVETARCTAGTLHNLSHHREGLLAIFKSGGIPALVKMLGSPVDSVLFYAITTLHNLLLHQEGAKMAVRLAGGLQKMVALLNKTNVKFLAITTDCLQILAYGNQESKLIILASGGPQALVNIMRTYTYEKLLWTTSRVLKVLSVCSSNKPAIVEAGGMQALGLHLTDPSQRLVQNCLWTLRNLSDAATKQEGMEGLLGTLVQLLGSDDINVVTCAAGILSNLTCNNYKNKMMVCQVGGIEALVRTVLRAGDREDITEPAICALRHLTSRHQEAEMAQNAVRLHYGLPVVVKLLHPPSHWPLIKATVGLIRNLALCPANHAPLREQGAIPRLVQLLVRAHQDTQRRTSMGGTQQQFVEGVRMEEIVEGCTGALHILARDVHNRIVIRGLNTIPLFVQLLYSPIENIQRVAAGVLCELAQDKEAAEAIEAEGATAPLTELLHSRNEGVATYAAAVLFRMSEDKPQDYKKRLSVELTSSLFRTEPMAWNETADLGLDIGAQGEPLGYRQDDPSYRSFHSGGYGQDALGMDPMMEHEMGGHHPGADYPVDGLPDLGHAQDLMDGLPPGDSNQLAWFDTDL
T1 sequence (O00512 whole entry): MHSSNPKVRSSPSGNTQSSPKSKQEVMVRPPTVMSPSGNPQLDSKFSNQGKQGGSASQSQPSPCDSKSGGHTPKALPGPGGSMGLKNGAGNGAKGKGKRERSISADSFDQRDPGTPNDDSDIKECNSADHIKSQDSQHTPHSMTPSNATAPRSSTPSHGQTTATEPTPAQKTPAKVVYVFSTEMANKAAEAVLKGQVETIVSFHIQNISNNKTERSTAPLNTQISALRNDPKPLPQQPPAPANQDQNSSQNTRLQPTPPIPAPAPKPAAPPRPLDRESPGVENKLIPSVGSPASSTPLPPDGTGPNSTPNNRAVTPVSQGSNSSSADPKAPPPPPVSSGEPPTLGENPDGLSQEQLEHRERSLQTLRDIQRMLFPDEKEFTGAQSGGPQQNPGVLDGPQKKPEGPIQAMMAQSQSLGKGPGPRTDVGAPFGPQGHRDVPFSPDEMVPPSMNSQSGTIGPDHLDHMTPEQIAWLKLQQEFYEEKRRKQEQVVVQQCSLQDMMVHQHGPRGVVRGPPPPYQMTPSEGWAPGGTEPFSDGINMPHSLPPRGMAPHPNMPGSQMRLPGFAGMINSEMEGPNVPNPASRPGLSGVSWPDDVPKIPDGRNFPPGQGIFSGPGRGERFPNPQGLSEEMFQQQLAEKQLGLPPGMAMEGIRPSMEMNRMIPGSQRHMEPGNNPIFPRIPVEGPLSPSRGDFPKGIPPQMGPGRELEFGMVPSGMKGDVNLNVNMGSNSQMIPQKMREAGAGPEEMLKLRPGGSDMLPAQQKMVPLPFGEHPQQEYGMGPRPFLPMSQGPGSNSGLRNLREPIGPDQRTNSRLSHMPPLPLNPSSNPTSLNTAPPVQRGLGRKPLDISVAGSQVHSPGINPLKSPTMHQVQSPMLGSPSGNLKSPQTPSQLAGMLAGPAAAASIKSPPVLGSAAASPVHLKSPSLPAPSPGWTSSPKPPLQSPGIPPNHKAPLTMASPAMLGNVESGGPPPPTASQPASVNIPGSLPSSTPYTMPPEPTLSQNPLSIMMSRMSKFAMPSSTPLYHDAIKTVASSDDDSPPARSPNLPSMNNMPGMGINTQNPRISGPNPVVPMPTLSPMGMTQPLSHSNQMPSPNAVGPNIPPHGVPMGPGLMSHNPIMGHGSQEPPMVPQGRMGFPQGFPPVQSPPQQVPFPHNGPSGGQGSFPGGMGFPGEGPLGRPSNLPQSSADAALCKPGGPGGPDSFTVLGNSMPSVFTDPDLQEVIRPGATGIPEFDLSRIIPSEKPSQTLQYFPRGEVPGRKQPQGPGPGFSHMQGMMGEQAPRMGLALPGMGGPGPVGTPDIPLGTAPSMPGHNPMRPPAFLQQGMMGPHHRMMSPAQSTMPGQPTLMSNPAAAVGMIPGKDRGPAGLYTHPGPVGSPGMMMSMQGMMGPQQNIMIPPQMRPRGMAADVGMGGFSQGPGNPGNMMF

[5] = molecular target: Protein Wnt-3a (Mus musculus) (UniProt P27467); test: Inhibition of mouse wnt3a expressed in human MDA-MB-231 cells assessed as Axin2 level at 10 uM incubated for […] by quantitative real-time PCR analysis relative to control; assay type: cell-based; design: scale not given: the % may be the effect or the level left
[6] = Downregulation of HPRT in human MDA-MB-231 cells assessed as HPRT level at 3.3 uM incubated for […] by quantitative real-time PCR analysis relative to control; assay type: ADME, cell-based; conditions: mda-mb-231, 3.3 µM
[7] = tested on: SW480; test: Inhibition of Wnt signalling in human SW480 cells assessed as reduction in cyclinD1 expression incubated for 24 hrs by Western blot analysis; assay type: cell-based
[8] = Selectivity ratio of IC50 for human SW480 cells harboring beta-catenin pcDNA3.1 vector to IC50 for human SW480 cells harboring empty pcDNA3.1 vector
[9] = molecular target: Protein Wnt-3a (Mus musculus) (UniProt P27467); test: Inhibition of mouse wnt3a expressed in human MDA-MB-231 cells assessed as Axin2 level at 30 uM incubated for […] by quantitative real-time PCR analysis relative to control; assay type: cell-based; design: scale not given: the % may be the effect or the level left
[10] = tested on: SW480; test: Inhibition of Wnt/beta-catenin transactivation signalling in human SW480 cells harboring mutant tcf4 binding sites assessed as relative activity at 6.25 uM incubated for 24 hrs by FOPFlash luciferase assay relative to control; assay type: cell-based; design: scale not given: the % may be the effect or the level left

Chain of Protein Wnt-3a (Mus musculus) (P27467 whole entry, the tested form may be a part): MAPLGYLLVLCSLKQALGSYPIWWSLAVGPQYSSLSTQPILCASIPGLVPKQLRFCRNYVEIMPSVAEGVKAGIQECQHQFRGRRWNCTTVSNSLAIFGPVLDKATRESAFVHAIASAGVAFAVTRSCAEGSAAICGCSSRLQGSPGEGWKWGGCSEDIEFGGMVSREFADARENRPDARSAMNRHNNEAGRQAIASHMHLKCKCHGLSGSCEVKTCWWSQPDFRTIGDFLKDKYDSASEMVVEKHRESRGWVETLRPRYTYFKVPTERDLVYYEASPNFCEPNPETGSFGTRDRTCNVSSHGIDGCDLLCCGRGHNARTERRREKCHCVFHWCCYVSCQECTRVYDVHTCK
Chain of Protein Wnt-3a (Homo sapiens) (P56704 whole entry): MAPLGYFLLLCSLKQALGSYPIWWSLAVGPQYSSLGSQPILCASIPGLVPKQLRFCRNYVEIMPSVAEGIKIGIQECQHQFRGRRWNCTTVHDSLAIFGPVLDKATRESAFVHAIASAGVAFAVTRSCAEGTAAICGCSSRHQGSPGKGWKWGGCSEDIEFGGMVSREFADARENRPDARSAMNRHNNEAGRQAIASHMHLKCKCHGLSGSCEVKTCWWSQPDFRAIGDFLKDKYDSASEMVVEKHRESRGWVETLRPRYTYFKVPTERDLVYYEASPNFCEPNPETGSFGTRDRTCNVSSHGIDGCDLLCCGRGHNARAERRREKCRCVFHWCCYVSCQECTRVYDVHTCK

Activity [1]: 76% | Activity [2]: 40% | Activity [3]: 94% | IC50 [4]: 4.4 µM | Activity [5]: 57% | Activity [6]: 102% | Activity [9]: 50%
SMILES: CC(C)(Oc1cccc(N2CCC[C@H](C(=O)N(Cc3ccc(-c4cccs4)cc3)C3CC3)C2)c1)C(=O)NS(=O)(=O)c1ccc(C#N)cc1
Activity [7]: Dose-Dependent Effect | Ratio IC50 [8]: 4 | Activity [10]: 97%
